Measurements published in publication PMC4372995 (Journal of the American Chemical Society, 2015).
Like-named read-outs stand apart in the source and are kept apart here.

Experiments:
Type in all cases: cell-based
RhlR [1] = biological target: T1, RhlR (Pseudomonas aeruginosa, UniProt P54292); test: RhlR reporter antagonism in E. coli, […] vs […] BHL; details: read-out: E. coli / RhlR ^b / antagonism (%) ^g
RhlR [2] = biological target: T1, RhlR; test: RhlR reporter antagonism in E. coli, […] vs […] BHL; details: read-out: E. coli / RhlR ^b / antagonism (%) ^g; remark: listed apart in the source
RhlR [3] = biological target: T1, RhlR; test: RhlR reporter agonism in E. coli at […]; details: 100 µM

T1 sequence (P54292 whole entry): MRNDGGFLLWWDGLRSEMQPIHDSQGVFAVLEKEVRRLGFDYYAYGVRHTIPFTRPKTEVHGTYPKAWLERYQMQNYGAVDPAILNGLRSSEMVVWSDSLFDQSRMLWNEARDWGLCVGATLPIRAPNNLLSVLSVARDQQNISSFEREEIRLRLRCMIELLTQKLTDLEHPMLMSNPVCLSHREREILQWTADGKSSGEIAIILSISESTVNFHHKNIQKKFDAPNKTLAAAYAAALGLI

## O=C(Cc1ccc(I)cc1)N[C@H]1CCOC1=O [C10]
RhlR [1]
  inhibition at 100 µM: 84%

## O=C(COc1ccc(I)cc1)N[C@H]1CCOC1=O [E22]
RhlR [2]
  inhibition at 100 µM: 74%

## O=C(CCCOc1cccc(Br)c1)NC1CCSC1=O (stereo not drawn) [compound 5, mBTL]
RhlR [3]
  PAO1 / pyocyanin inhibition (%): 83 % agonism at 100 µM
